Drawing on PubChem BioAssay AID1259407 (Chemical Carcinogenesis Research Information System (CCRIS), 2018), this text covers mutagenic call for five compounds.

Active and inactive are the calls of the source. The rule behind the calls is not given here.

For the data set, the system named is CCRIS mutagenicity, Ames/micronucleus/aberration tests. The data set is described as follows: CCRIS mutagenicity studies. From the text: The CCRIS database contains chemical records with carcinogenicity, mutagenicity, tumor promotion, and tumor inhibition test results. It was developed by the National Cancer Institute (NCI). Data are derived from studies cited in primary journals, current awareness tools, NCI reports, and other sources. Test results have been reviewed by experts in carcinogenesis and mutagenesis.
CCRIS provides historical information from the years 1985 - 2011. It is no longer updated.
This is an archive assay for CCRIS mutagenicity studies.

Setting [1] is: Test System: AMES SALMONELLA TYPHIMURIUM, Strain/Indicator: TA98, Metabolic Activation: NONE, Method: PREINCUBATION
Where [2] appears, read: Test System: AMES SALMONELLA TYPHIMURIUM, Strain/Indicator: TA100, Metabolic Activation: NONE, Method: PREINCUBATION
[3] abbreviates: Test System: AMES SALMONELLA TYPHIMURIUM, Strain/Indicator: TA1535, Metabolic Activation: NONE, Method: PREINCUBATION
The mark [4] stands for this setting: Test System: AMES SALMONELLA TYPHIMURIUM, Strain/Indicator: TA1537, Metabolic Activation: NONE, Method: PREINCUBATION

Take `CCCCCCCOP(=S)([S-])OCCCCCCC.CCCCCCCOP(=S)([S-])OCCCCCCC.[Zn+2]`: the mutagenic call (Test System: AMES SALMONELLA TYPHIMURIUM, Strain/Indicator: TA98, Metabolic Activation: NONE, Method: STANDARD PLATE) was “inactive; negative”; the mutagenic call (Test System: AMES SALMONELLA TYPHIMURIUM, Strain/Indicator: TA98, Metabolic Activation: RAT, LIVER, S-9, Method: STANDARD PLATE) was “inactive; negative”; the mutagenic call (Test System: AMES SALMONELLA TYPHIMURIUM, Strain/Indicator: TA100, Metabolic Activation: NONE, Method: STANDARD PLATE) is “inactive; negative”; the mutagenic call (Test System: AMES SALMONELLA TYPHIMURIUM, Strain/Indicator: TA100, Metabolic Activation: RAT, LIVER, S-9, Method: STANDARD PLATE) was “inactive; negative”; the mutagenic call (Test System: AMES SALMONELLA TYPHIMURIUM, Strain/Indicator: TA102, Metabolic Activation: NONE, Method: STANDARD PLATE) was “inactive; negative”; the mutagenic call (Test System: AMES SALMONELLA TYPHIMURIUM, Strain/Indicator: TA102, Metabolic Activation: RAT, LIVER, S-9, Method: STANDARD PLATE) is “inactive; negative”.

For `C[N+]1([O-])CCC[C@H]1c1cccnc1` (stereo partly specified), the mutagenic call was “inactive; negative” under setting [1]; “inactive; negative” (Test System: AMES SALMONELLA TYPHIMURIUM, Strain/Indicator: TA98, Metabolic Activation: RAT, LIVER, S-9, AROCLOR 1254 (5%), Method: PREINCUBATION); “inactive; negative” under setting [2]; “inactive; negative” (Test System: AMES SALMONELLA TYPHIMURIUM, Strain/Indicator: TA100, Metabolic Activation: RAT, LIVER, S-9, AROCLOR 1254 (5%), Method: PREINCUBATION); “inactive; negative” under setting [3]; “inactive; negative” (Test System: AMES SALMONELLA TYPHIMURIUM, Strain/Indicator: TA1535, Metabolic Activation: RAT, LIVER, S-9, AROCLOR 1254 (5%), Method: PREINCUBATION). In addition, the mutagenic call is “inactive; negative” under setting [4]; “inactive; negative” (Test System: AMES SALMONELLA TYPHIMURIUM, Strain/Indicator: TA1537, Metabolic Activation: RAT, LIVER, S-9, AROCLOR 1254 (5%), Method: PREINCUBATION); “inactive; negative” (Test System: AMES SALMONELLA TYPHIMURIUM, Strain/Indicator: TA1538, Metabolic Activation: NONE, Method: PREINCUBATION); “inactive; negative” (Test System: AMES SALMONELLA TYPHIMURIUM, Strain/Indicator: TA1538, Metabolic Activation: RAT, LIVER, S-9, AROCLOR 1254 (5%), Method: PREINCUBATION).

Turning to `NC(=O)C1(N2CCCCC2)CCN(CCCC(=O)c2ccc(F)cc2)CC1`, the mutagenic call (End Point: IN VITRO CHROMOSOMAL ABERRATIONS, Test System: HUMAN LYMPHOCYTES, Metabolic Activation: NONE) was “inactive; negative”.

In the case of `COc1cccc2c1[C@H](CO)N1[C@@H](C#N)[C@@H]3C[C@@H](C(=O)O)[C@H]([C@@H]1C2)N3C`, the mutagenic call reads like this: (Test System: Mouse lymphoma, Strain/Indicator: L5178Y (tk+/tk-), Metabolic Activation: None, Method: Suspension/plate) “active; positive”; (Test System: Mouse lymphoma, Strain/Indicator: L5178Y (tk+/tk-), Metabolic Activation: Rat, Liver, S-9, Aroclor 1254, Method: Suspension/plate) “active; positive”.

On to `CN(C)[C@@H]1C(=O)C(C(N)=O)=C(O)[C@@]2(O)C(=O)C3=C(O)c4c(O)cccc4[C@@](C)(O)[C@H]3[C@H](O)[C@@H]12`, for which the mutagenic call was “inactive; negative” (End Point: AMES SALMONELLA TYPHIMURIUM, Test System: TA98, Metabolic Activation: NONE, Method: STANDARD PLATE); “inactive; negative” (End Point: AMES SALMONELLA TYPHIMURIUM, Test System: TA100, Metabolic Activation: NONE, Method: STANDARD PLATE); “inactive; negative” (End Point: IN VITRO CHROMOSOMAL ABERRATIONS, Test System: CHO CELLS, Metabolic Activation: NONE); “inactive; negative” (End Point: IN VITRO CHROMOSOMAL ABERRATIONS, Test System: CHO CELLS, Metabolic Activation: RAT, LIVER, S-9, AROCLOR 1254); “inactive; negative” (Test System: AMES SALMONELLA TYPHIMURIUM, Strain/Indicator: TA98, Metabolic Activation: HAMSTER, LIVER, S-9, AROCLOR 1254, Method: PREINCUBATION); “inactive; negative” under setting [1]. For the same compound, the mutagenic call (Test System: AMES SALMONELLA TYPHIMURIUM, Strain/Indicator: TA98, Metabolic Activation: RAT, LIVER, S-9, AROCLOR 1254, Method: PREINCUBATION) is “inactive; negative”; the mutagenic call (Test System: AMES SALMONELLA TYPHIMURIUM, Strain/Indicator: TA100, Metabolic Activation: HAMSTER, LIVER, S-9, AROCLOR 1254, Method: PREINCUBATION) is “inactive; negative”; the mutagenic call under setting [2] was “inactive; negative”; the mutagenic call (Test System: AMES SALMONELLA TYPHIMURIUM, Strain/Indicator: TA100, Metabolic Activation: RAT, LIVER, S-9, AROCLOR 1254, Method: PREINCUBATION) is “inactive; negative”; the mutagenic call (Test System: AMES SALMONELLA TYPHIMURIUM, Strain/Indicator: TA1535, Metabolic Activation: HAMSTER, LIVER, S-9, AROCLOR 1254, Method: PREINCUBATION) was “inactive; negative”; the mutagenic call under setting [3] was “inactive; negative”. For the same compound, the mutagenic call (Test System: AMES SALMONELLA TYPHIMURIUM, Strain/Indicator: TA1535, Metabolic Activation: RAT, LIVER, S-9, AROCLOR 1254, Method: PREINCUBATION) was “inactive; negative”; the mutagenic call (Test System: AMES SALMONELLA TYPHIMURIUM, Strain/Indicator: TA1537, Metabolic Activation: HAMSTER, LIVER, S-9, AROCLOR 1254, Method: PREINCUBATION) was “inactive; negative”; the mutagenic call under setting [4] was “inactive; negative”; the mutagenic call (Test System: AMES SALMONELLA TYPHIMURIUM, Strain/Indicator: TA1537, Metabolic Activation: RAT, LIVER, S-9, AROCLOR 1254, Method: PREINCUBATION) was “inactive; negative”; the mutagenic call (Test System: MOUSE LYMPHOMA, Strain/Indicator: L5178Y (TK+/TK-), Metabolic Activation: RAT, LIVER, S-9, AROCLOR 1254, Method: SUSPENSION/PLATE) was “active; positive”.
